Experimental data as given in patent US4346087A, “Antibacterial surface active agent containing azaalkenelactam” (priority 1979, dated 1982).
In brackets after ≈: the same amount, converted by molar mass. Like-named read-outs stand apart in the source and are kept apart here.

How the values were obtained:
Assay type in all cases: cell-based
[1] = system: Desulfovibrio desulfuricans IFO 13699; assay: MIC against Desulfovibrio desulfuricans
Source text: (§1) Below are described the antibacterial activities of the compounds in the compositions according to this invention.
(§2) The testing method complied with the standard method of Japan Sociaty of Chemotherapy.

[2] = system: Escherichia coli NIHJ; assay: MIC against Escherichia coli NIHJ
Source text: as §1, §2

[3] = system: Staphylococcus aureus FDA 209P; assay: MIC against Staphylococcus aureus FDA 209P
Source text: as §1, §2

[4] = Desulfovibrio desulfuricans, IFO13699, 24 h
[5] = Escherichia coli, Table 2, derivatives having a carboxylate radical, heart infusion agar, 37° C., 24 hours, read-out: MIC
[6] = Staphylococcus aureus, FDA209P, 24 h
[7] = Escherichia coli, Table 1, azaalkenelactams, heart infusion agar, 37° C., 24 hours, read-out: MIC
[8] = Staphylococcus aureus, FDA209P, Table 1, azaalkenelactams, heart infusion agar, 37° C., 24 hours, read-out: MIC
[9] = Table 2, derivatives having a carboxylate radical, heart infusion agar, 37° C., 24 hours

| Compound | MIC [1, 4] [µg/mL] | MIC ([2]; Escherichia coli, 24 h) [µg/mL] | MIC [3, 6] [µg/mL] | further results |
| --- | --- | --- | --- | --- |
| CCCCCCCC(=O)OCCN1CC[N+](CC(=O)[O-])=C(C)CC1=O [4-octoyloxyethyl-7-methyl-1-azonia-4-azacyclohept-7-en-5-one-1-acetate] | 50 (≈ 141 µM) | – | – | MIC [2, 5]: 3200 µg/mL (≈ 9030 µM); MIC ([3]; Staphylococcus aureus, FDA209P, Table 2, derivatives having a carboxylate radical, heart infusion agar, 37° C., 24 hours, read-out: MIC): 800 µg/mL (≈ 2260 µM) |
| CCCCCCCCC=CCCCCCCCCN1CC[N+](CC(=O)[O-])=CCCC1=O [4-(9-octadecenyl)-4-aza-1-azoniacyclooct-8-en-5-one-1-acetate] | 50 (≈ 115 µM) | 400 (≈ 920 µM) | 200 (≈ 460 µM) | – |
| CCCCCCCCC=CCCCCCCCCN1CCC[N+](CC(=O)[O-])=C(C)CC1=O [1-(9-octadecenyl)-4-methyl-1-aza-5-azoniacyclooct-4-en-2-one-5-acetate] | 12.5 (≈ 27.9 µM) | – | 12.5 (≈ 27.9 µM) | MIC [2, 5]: 800 µg/mL (≈ 1780 µM) |
| CCCCCCCCCCCCCCNCCN1CC[N+](C(C)C(=O)[O-])=CC(C)(C)C1=O (stereo not drawn) [4-tetradecylaminoethyl-6,6-dimethyl-1-azonia-4-azacyclohept-7-en-5-one-1-propionate] | 6.25 (≈ 13.8 µM) | 100 (≈ 221 µM) | 6.25 (≈ 13.8 µM) | – |
| CCCCCCCCCCCC(=O)OCCN1CCN=CC(C)C1=O (stereo not drawn) [Example 47, 4-lauroyloxyethyl-6-methyl-3,6-dihydro-2H-1,4-diazepin-5-one] | – | – | – | MIC ([1]; Desulfovibrio desulfuricans, IFO13699, Table 1, azaalkenelactams, heart infusion agar, 37° C., 24 hours, read-out: MIC): 50 µg/mL (≈ 142 µM); MIC [2, 7]: 200 µg/mL (≈ 567 µM); MIC [3, 8]: 50 µg/mL (≈ 142 µM) |
| CCCCCCCCCc1ccc(OCC(O)CNCCNCCNCCN2CCN=CCC(C)C2=O)cc1 (stereo not drawn) [Example 69, 4-nonylphenoxy(2-hydroxy)propylaminoethylaminoethylaminoethyl-6-methyl-2,3,6,7-tetrahydro-1,4-diazocin-5-one] | 50 (≈ 91.6 µM) | 200 (≈ 366 µM) | 200 (≈ 366 µM) | – |
| CCCCCCCCCCCC(=O)OCCN1CC[N+](CC(=O)[O-])=CC(C)C1=O (stereo not drawn) [4-lauroyloxyethyl-6-methyl-1-azonia-4-azacyclohept-7-en-5-one-1-acetate] | 50 (≈ 122 µM) | 200 (≈ 487 µM) | 50 (≈ 122 µM) | – |
| 4-octoxy(2-hydroxy)propyl-7-methyl-1-azonia-4-azacyclohept-7-en-5-one-1-acetate | – | – | – | MIC [1]: 25 µg/mL; MIC [2, 9]: 800 µg/mL; MIC [3]: 100 µg/mL |
| CCCCCCCCCCCCOCC(O)CN1CCC[N+](C(C)C(=O)[O-])=C(C)CC1=O (stereo not drawn) [1-docoxy(2-hydroxy)propyl-4-methyl-1-aza-5-azoniacyclooct-4-en-2-one-5-propionate] | 12.5 (≈ 27.5 µM) | – | 25 (≈ 55 µM) | MIC [2, 5]: 800 µg/mL (≈ 1760 µM) |
| CCCCCCCCCCCC(=O)OCCN1CCN=C(C)CC1=O [Example 12, 4-lauroyloxyethyl-7-methyl-3,6-dihydro-2H-1,4-diazepin-5-one] | 12.5 (≈ 35.5 µM) | – | 100 (≈ 284 µM) | MIC [2, 7]: 1600 µg/mL (≈ 4540 µM) |
| 4-octoxy(2-hydroxy)propyl-7-methyl-3,6-dihydro-2H-1,4-diazepin-5-one [Example 31] | – | – | – | MIC [1]: 50 µg/mL; MIC [2]: 400 µg/mL; MIC [3]: 50 µg/mL |
| CCCCCCCC(=O)NCCN1CCN=C(C)CC1=O [Example 23, 4-octamidoethyl-7-methyl-3,6-dihydro-2H-1,4-diazepin-5-one] | 50 (≈ 169 µM) | 25 (≈ 84.6 µM) | 25 (≈ 84.6 µM) | – |
| CCCCCCCCCCCCCCCCCCCCCCNCCN1CCN=C(C)CC1=O [Example 22, 4-docosylaminoethyl-7-methyl-3,6-dihydro-2H-1,4-diazepin-5-one] | 12.5 (≈ 26.2 µM) | – | 25 (≈ 52.3 µM) | MIC [2, 7]: 800 µg/mL (≈ 1670 µM) |
| CCCCCCCCCCCCNCCN1CC[N+](CC(=O)[O-])=C(C)CC1=O [4-dodecylaminoethyl-7-methyl-1-azonia-4-azacyclohept-7-en-5-one-1-acetate] | 12.5 (≈ 31.6 µM) | 100 (≈ 253 µM) | 50 (≈ 126 µM) | – |
| CCCCCCCC/C=C\CCCCCCCC(=O)NCCN1CC[N+](CC(=O)[O-])=C(C)CC1=O [4-oleamidoethyl-7-methyl-1-azonia-4-azacyclohept-7-en-5-one-1-acetate] | 12.5 (≈ 25.4 µM) | – | 25 (≈ 50.8 µM) | MIC [2, 5]: 3200 µg/mL (≈ 6510 µM) |
| CCCCCCCCCc1ccc(OCCOCCN2CCCN=C(C)CC2=O)cc1 [Example 7, 1-nonylphenylpoly(2 moles)oxyethyleneoxyethyl-4-methyl-3,6,7,8-tetrahydro-1,5-diazocin-2-one] | 12.5 (≈ 29 µM) | 200 (≈ 464 µM) | 12.5 (≈ 29 µM) | – |
| CCCCCCCCCCCC(=O)NCCN1CCN=CC(C)C1=O (stereo not drawn) [Example 46, 4-lauramidoethyl-6-methyl-3,6-dihydro-2H-1,4-diazepin-5-one] | 6.25 (≈ 17.8 µM) | 25 (≈ 71.1 µM) | 6.25 (≈ 17.8 µM) | – |
| CCCCCCCCCCCCC(O)CNCCN1CC[N+](CC(=O)[O-])=C(C)CC1=O (stereo not drawn) [4-(2-hydroxytetradecyl)aminoethyl-7-methyl-1-azonia-4-azacyclohept-7-en-5-one-1-acetate] | 12.5 (≈ 28.4 µM) | 100 (≈ 227 µM) | 50 (≈ 114 µM) | – |
| CCCCCCCCCCCCN1CC[N+](CC(=O)[O-])=CC(C)C1=O (stereo not drawn) [4-dodecyl-6-methyl-1-azonia-4-azacyclohept-7-en-5-one-1-acetate] | 25 (≈ 70.9 µM) | – | 25 (≈ 70.9 µM) | MIC [2, 5]: 800 µg/mL (≈ 2270 µM) |

| Compound | MIC [1, 4] [µg/mL] | MIC ([2]; Escherichia coli, 24 h) [µg/mL] | MIC [3, 6] [µg/mL] | further results |
| --- | --- | --- | --- | --- |
| CCCCCCCC(=O)NCCN1CCN=CCCC1=O [Example 56, 4-octamidoethyl-2,3,6,7-tetrahydro-1,4-diazocin-5-one] | 50 (≈ 169 µM) | 100 (≈ 338 µM) | 200 (≈ 677 µM) | – |
| CCCCCCCCCCCC(=O)OCCN1CCCN=C(C)CC1=O [Example 14, 1-lauroyloxyethyl-4-methyl-3,6,7,8-tetrahydro-1,5-diazocin-2-one] | 12.5 (≈ 34.1 µM) | – | – | MIC [2, 7]: 1600 µg/mL (≈ 4370 µM); MIC [3, 8]: 100 µg/mL (≈ 273 µM) |
| CCCCCCCCCCCC(=O)OCCN1CC[N+](CC(=O)[O-])=C(C)CC1=O [4-lauroyloxyethyl-7-methyl-1-azonia-4-azacyclohept-7-en-5-one-1-acetate] | 25 (≈ 60.9 µM) | – | 400 (≈ 974 µM) | MIC [2, 5]: 3200 µg/mL (≈ 7790 µM) |
| 4-methylbenzylpoly(2 moles)oxypropyleneoxypropyl-6-methyl-4-aza-1-azoniacyclooct-8-en-5-one-1-acetate | – | – | – | MIC [1]: 25 µg/mL; MIC [2, 9]: 800 µg/mL; MIC [3]: 400 µg/mL |
| CCCCCCCCCCC(O)CN1CCN=CC(C)C1=O (stereo not drawn) [Example 43, 4-(2-hydroxy)dodecyl-6-methyl-3,6-dihydro-2H-1,4-diazepin-5-one] | 12.5 (≈ 40.3 µM) | 400 (≈ 1290 µM) | 12.5 (≈ 40.3 µM) | – |
| CCCCCCCCCc1ccc(OCC(O)CNCCNCCNCCN2CCN=CC(C)C2=O)cc1 (stereo not drawn) [Example 52, 4-nonylphenoxy(2-hydroxy)propylaminoethylaminoethylaminoethyl-6-methyl-3,6-dihydro-2H-1,4-diazepin-5-one] | 50 (≈ 94 µM) | – | – | MIC [2, 7]: 100 µg/mL (≈ 188 µM); MIC [3, 8]: 100 µg/mL (≈ 188 µM) |
| CCCCCCCC(=O)OCCN1CCN=C(C)CC1=O [Example 24, 4-octoyloxyethyl-7-methyl-3,6-dihydro-2H-1,4-diazepin-5-one] | 25 (≈ 84.3 µM) | – | 200 (≈ 675 µM) | MIC [2, 7]: 800 µg/mL (≈ 2700 µM) |
| CCCCCCCCCCCCCCCCN1CCN=C(C)CC1=O [Example 5, 4-hexadecyl-7-methyl-3,6-dihydro-2H-1,4-diazepin-5-one] | 6.25 (≈ 17.8 µM) | – | 12.5 (≈ 35.7 µM) | MIC [2, 7]: 3200 µg/mL (≈ 9130 µM) |
| CCCCCCCCCCCCCCCCCCCCC(O)CNCCNCCN1CCC[N+](CC(=O)[O-])=C(C)CC1=O (stereo not drawn) [1-(2-hydroxy)docosylaminoethylaminoethyl-4-methyl-1-aza-5-azoniacyclooct-4-en-2-one-5-acetate] | 6.25 (≈ 10.3 µM) | 50 (≈ 82.1 µM) | 25 (≈ 41.1 µM) | – |
| CCCCCCCCCCCCOCCNCCN1CC[N+](CC(=O)[O-])=C(C)CC1=O [4-dodecoxyaminoethyl-7-methyl-1-azonia-4-azacyclohept-7-en-5-one-1-acetate] | 25 (≈ 56.9 µM) | 200 (≈ 455 µM) | 25 (≈ 56.9 µM) | – |
| CC1=NCCN(CCNC(=O)CCCCCCCCCCCCCCC(C)C)C(=O)C1 [Example 11, 4-isostearamidoethyl-7-methyl-3,6-dihydro-2H-1,4-diazepin-5-one] | 6.25 (≈ 14.3 µM) | – | 100 (≈ 230 µM) | MIC [2, 7]: 1600 µg/mL (≈ 3670 µM) |
| CCCCCCCCCCCCCCNCCN1CC[N+](C(C)C(=O)[O-])=CCC(C)C1=O (stereo not drawn) | 6.25 (≈ 13.8 µM) | 100 (≈ 221 µM) | 6.25 (≈ 13.8 µM) | – |
| CCCCCC[C@@H](O)C/C=C\CCCCCCCC(=O)NCCN1CCN=CC(C)(C)C1=O [Example 64, 4-ricinolamidoethyl-6,6-dimethyl-3-hydro-2H-1,4-diazepin-5-one] | 25 (≈ 53.9 µM) | 400 (≈ 863 µM) | 200 (≈ 431 µM) | – |
| CCCCCCCCCCCCC(O)CN1CCC[N+](CC(=O)[O-])=C(C)CC1=O (stereo not drawn) [1-(2-hydroxy)tetradecyl-4-methyl-1-aza-5-azoniacyclooct-4-en-2-one-5-acetate] | 6.25 (≈ 15.2 µM) | 100 (≈ 244 µM) | 25 (≈ 60.9 µM) | – |
| CCCCCCCCCCCCN1CCC[N+](CC(=O)[O-])=CC(C)C1=O (stereo not drawn) [1-dodecyl-3-methyl-1-aza-5-azoniacyclooct-4-en-2-one-5-acetate] | 25 (≈ 68.2 µM) | – | 50 (≈ 136 µM) | MIC [2, 5]: 1600 µg/mL (≈ 4370 µM) |
| 1-octadecylaminopropyl-4-methyl-1-aza-5-azoniacyclooct-4-en-2-one-5-propionate | – | – | – | MIC [1]: 6.25 µg/mL; MIC [2]: 100 µg/mL; MIC [3]: 6.25 µg/mL |
| CCCCCCCCCc1ccc(OCCOCCN2CCCN=CC(C)(C)C2=O)cc1 [Example 62, 1-nonylphenylpoly(2 moles)oxyethyleneoxyethyl-3,3-dimethyl-6,7,8-trihydro-1,5-diazocin-5-one] | 50 (≈ 112 µM) | 200 (≈ 450 µM) | 100 (≈ 225 µM) | – |
| CCCCCCCCCc1ccc(OCCOCCN2CCC[N+](CC(=O)[O-])=C(C)CC2=O)cc1 [1-nonylphenylpoly(2 moles)oxyethyleneoxyethyl-4-methyl-1-aza-5-azoniacyclooct-4-en-2-one-5-acetate] | 25 (≈ 51.2 µM) | 200 (≈ 409 µM) | 12.5 (≈ 25.6 µM) | – |
